In ChEMBL document CHEMBL5620374, “Synthesis and bioevaluation of novel stilbene-based derivatives as tubulin/HDAC dual-target inhibitors with potent antitumor activities in vitro and in vivo” (Eur J Med Chem, 2023):
pIC50: −log10 of the molar value.

How the values were obtained:
[1] = system: K562; test: Antiproliferative activity against human K562 cells incubated for 72 hrs by MTT assay; type: functional, cell-based; conditions: K562, 72 h
[2] = system: K562; test: Antiproliferative activity against human K562 cells assessed as cell inhibition rate at 0.1 uM incubated for 72 hrs by MTT assay relative to control; type: functional
[3] = system: K562; test: Antiproliferative activity against human K562 cells assessed as cell inhibition rate at 1 uM incubated for 72 hrs by MTT assay relative to control; type: functional
[4] = system: K562; test: Antiproliferative activity against human K562 cells assessed as cell inhibition rate at 0.01 uM incubated for 72 hrs by MTT assay relative to control; type: functional

pIC50 [1] | SMILES | inhibition at 0.1 µM [2] | inhibition at 1 µM [3] | inhibition at 0.01 µM [4]
6.29 | C=C(c1cc(C)nc(C)c1)c1ccc(OC)c(OCCCC(=O)NO)c1 | – | – | –
– | C=C(c1ccc2[nH]ccc2c1)c1cc(/C=C/C(=O)NO)nc2ccccc12 | 3.73% | 4.78% | 3.16%
5.48 | C=C(c1ccc(OC)c(OCCCCCC(=O)NO)c1)c1ccnc2ccccc12 | – | – | –
5.63 | C=C(c1cccc(OC(C)C(=O)NO)c1)c1cc(C)nc2ccccc12 (centres undefined) | – | – | –
– | C=C(c1ccc(OC)cc1)c1cc(C(=O)Nc2ccccc2N)nc2ccccc12 | 0.24% | 1.1% | -0.16%
6.69 | C=C(c1ccc(OC)c(OC(F)(F)C(=O)NO)c1)c1cc(C)nc2ccccc12 | – | – | –
5.52 | C=C(c1cccc(OCCCC(=O)NO)c1)c1cc(C)nc2ccccc12 | – | – | –
5.72 | C=C(c1cc(C)nc(C)c1)c1ccc(OC)c(OCCCCCC(=O)NO)c1 | – | – | –
5.94 | C=C(c1ccnc(OC)c1)c1ccc(OC)c(OCCCC(=O)NO)c1 | – | – | –
5.65 | C=C(c1ccc(OC)c(OCCCCCC(=O)NO)c1)c1cc(C)nc2ccccc12 | – | – | –
5.83 | C=C(c1ccnc(C)c1)c1ccc(OC)c(OCCCC(=O)NO)c1 | – | – | –
5.56 | C=C(c1cccc(OC/C=C/C(=O)NO)c1)c1cc(C)nc2ccccc12 | – | – | –
– | C=C(c1ccc2[nH]ccc2c1)c1cc(COCC(=O)NO)nc2ccccc12 | 6.23% | 15% | 2.28%
– | C=C(c1ccc(OC)c(O)c1)c1cc(/C=C/C(=O)NO)nc2ccccc12 | 12.9% | 87.3% | -0.17%
5.84 | C=C(c1ccc(OC)c(OCCCC(=O)NO)c1)c1ccnc2ccccc12 | – | – | –
– | C=C(c1ccc(OC)cc1)c1cc(/C=C/C(=O)NO)nc2ccccc12 | 6.82% | 43.5% | 1.41%
– | C=C(c1ccc(OC)cc1)c1cc(COCC(=O)NO)nc2ccccc12 | 3% | 40% | 2.6%
7.22 | C=C(c1ccnc(C)c1)c1ccc(OC)c(OC(C)C(=O)NO)c1 (centres undefined) | – | – | –

pIC50 [1] | SMILES | inhibition at 0.1 µM [2] | inhibition at 1 µM [3] | inhibition at 0.01 µM [4]
5.74 | C=C(c1ccc(OC)c(OCCCCC(=O)NO)c1)c1cc(C)nc2ccccc12 | – | – | –
5.88 | C=C(c1ccc(OC)c(C(=O)NO)c1)c1cc(C)nc2ccccc12 | – | – | –
7.21 | C=C(c1ccnc(OC)c1)c1ccc(OC)c(OC(C)C(=O)NO)c1 (centres undefined) | – | – | –
7.26 | C=C(c1ccnc(OC)c1)c1ccc(OC)c(OCC(=O)NO)c1 | – | – | –
6.97 | C=C(c1ccnc(C)c1)c1ccc(OC)c(OCC(=O)NO)c1 | – | – | –
6.76 | C=C(c1ccc(OC)c(OCCCC(=O)NO)c1)c1cc(C)nc2ccccc12 | – | – | –
5.61 | C=C(c1cccc(OCC(=O)NO)c1)c1cc(C)nc2ccccc12 | – | – | –
5.03 | C=C(c1cccc(OCCCCCC(=O)NO)c1)c1cc(C)nc2ccccc12 | – | – | –
7.10 | C=C(c1ccc(OC)c(OCC(=O)NO)c1)c1ccnc2ccccc12 | – | – | –
– | C=C(c1ccc(OC)c(O)c1)c1cc(C(=O)Nc2ccccc2N)nc2ccccc12 | 3.71% | 4.26% | 0.16%
5.16 | C=C(c1cccc(OC(C)(C)C(=O)NO)c1)c1cc(C)nc2ccccc12 | – | – | –
– | C=C(c1ccc(OC)c(O)c1)c1cc(COCC(=O)NO)nc2ccccc12 | 6.41% | 71.5% | 0.83%
5.41 | C=C(c1ccnc(OC)c1)c1ccc(OC)c(OCCCCCC(=O)NO)c1 | – | – | –
7.16 | C=C(c1ccc(OC)c(OC(C)C(=O)NO)c1)c1ccnc2ccccc12 (centres undefined) | – | – | –
7.21 | C=C(c1ccc(OC)c(OCCC(=O)NO)c1)c1cc(C)nc2ccccc12 | – | – | –
4.65 | C=C(c1ccc(OC)c(C(=O)Nc2ccccc2N)c1)c1cc(C)nc2ccccc12 | – | – | –
5.54 | C=C(c1ccnc(C)c1)c1ccc(OC)c(OCCCCCC(=O)NO)c1 | – | – | –
– | C=C(c1ccc2[nH]ccc2c1)c1cc(C(=O)Nc2ccccc2N)nc2ccccc12 | 2.75% | 2.75% | -0.17%
